# According to US20020001582A1, “Methods and compositions for inhibiting microbial growth” (priority 1999, published 2002):
# What was measured:
# [1] = system: IM082 Botrytis (blueberry, BCMAF F25); experiment: Inhibition of Botrytis by lysozyme in PD broth, % plate coverage; assay type: cell-based; settings: for coverage of the petri dishes: day 14
# Description: (§1) Botrytis was grown in petri dishes on PD agar. Potato dextrose broth was prepared, poured into glass dilution bottles (100 ml each), autoclaved and allowed to cool. […] A fungal square (plug) of each culture was cut and placed in/near the center of each plate. Fungal growth was quantified by measuring the diameter of growth of each fungus while it was growing on the liquid media in each petri dish using a ruler. Each treatment was done in triplicate. The experiment was repeated three times (three batches). The observation period for each batch was 2 weeks.
# (§2) The fungal growth was expressed in % coverage of the petri dishes by the fungal patches. The calculation is presented in the following equation:
# (§3) Fungal growth (%)=(area of fungal patch/total plate area )×100
# (§4) The average plate coverage for each treatment was plotted against the time after inoculation (FIGS. 14-19). Statistical analysis was carried out using SigmaStat (Version 2.0, SPSS Science, 1997).
# [2] = system: IM111 Botrytis (blueberry, BCMAF F27); experiment: as above; assay type: cell-based; settings: for fungal growth (% plate coverage): day 14
# Description: as §1, §2, §3, §4
# [3] = system: IM188 Botrytis cinerea; experiment: as above; assay type: cell-based; settings: for fungal growth (% plate coverage): day 14
# Description: as §1, §2, §3, §4
# [4] = system: IM113 Botrytis cinerea(Pers.); experiment: as above; assay type: cell-based; settings: for fungal growth (% plate coverage): day 14
# Description: as §1, §2, §3, §4
# [5] = system: IM112 Botrytis cinerea(Pers.); experiment: as above; assay type: cell-based
# Description: as §1, §2, §3, §4
# [6] = system: Gaeumannomyces graminis 97-923 (IM099); experiment: Minimum effective treatment concentration, fungal plug in 1/5 potato dextrose broth; assay type: cell-based
# Description: (§5) Fungal cultures isolated from turfgrass were collected from different sources including B.C. Ministry of Agriculture, Fisheries and Food and ATCC.
# (§6) ⅕ potato dextrose broth was prepared and autoclaved in Erlenmeyer flasks and allowed to cool. Different amounts of egg white lysozyme (Canadian Inovatech, Inc., B.C.) was weighed out and added directly into the flasks. Ten milliliters of broth was dispensed into sterile petri dishes.
# (§7) A fungal square (“plug”) of each culture was cut and placed in/near the center of each plate. The petri dishes were then incubated at 22-25° C. During incubation, the petri dishes were evaluated individually by measuring the diameter of fungal growth.
# [7] = system: Rhizoctonia spp. (IM079); experiment: as above; assay type: cell-based
# Description: as §5, §6, §7
# [8] = system: Sclerotinia homoeocarpa (IM088); experiment: as above; assay type: cell-based
# Description: as §5, §6, §7
# [9] = system: Typhula incarnata (IM086); experiment: as above; assay type: cell-based
# Description: as §5, §6, §7
# [10] = system: Curvularia (Poa) (IM094); experiment: as above; assay type: cell-based
# Description: as §5, §6, §7
# [11] = system: Fusarium (IM095, Turfgrass isolate); experiment: as above; assay type: cell-based
# Description: as §5, §6, §7
# [12] = system: Gaeumannomyces graminis 97-923 (IM100); experiment: as above; assay type: cell-based
# Description: as §5, §6, §7
# [13] = system: Gaeumannomyces graminis var.avenae (IM084); experiment: as above; assay type: cell-based
# Description: as §5, §6, §7
# [14] = system: Rhizoctonia solani (IM085); experiment: as above; assay type: cell-based
# Description: as §5, §6, §7
# [15] = system: Fusarium; experiment: Lysozyme against Fusarium inoculated from liquid broth; assay type: cell-based
# Description: PD broth was prepared and autoclaved in dilution bottles (100 ml) and allowed to cool. Various amounts of lysozyme were added into the bottles and dissolved. […] One ml of Fusarium broth was transferred into each dish and the contents were mixed well. The plates were incubated at room temperature for 2 weeks. The trial was carried out in triplicate and was repeated three times. Pictures of the fungi were taken daily using a digital camera and the data was transferred on to the computer and processed.
# [16] = system: M. nivale; experiment: Suppression of fungal disease on young bentgrass, greenhouse trial; assay type: in vivo, M. nivale on creeping bentgrass (Agrotis spp.) cv. Penncross; settings: 5,000 and 10,000 ppm
# Description: Creeping bentgrass (Agrotis spp.) cv. Penncross was used as the host in the greenhouse trials. This species is widely used in golf greens and is easily managed under greenhouse conditions. Bentgrass was seeded in 6 cm diameter and 5 cm height pots (made from PVC pipes) containing steam sterilized river washed sand. A seeding rate of 0.1 g/pot was used to ensure rapid establishment of a uniform, dense stand. Throughout the experiment, the grass was regularly watered, fertilized and maintained at a cutting height approximately 2.0 cm above the soil surface.
# Virulent isolates of test fungi were grown on a rye grain medium for approximately one week. This medium consisted of 50 g of rye grain, 1 g of CaCO3, and 75 ml of water. It was prepared in a 250 ml Erlenmeyer flask and autoclaved for 30 minutes. Three to five plugs of the actively growing mycelia from week old cultures on potato dextrose agar were transferred into flasks, and incubated in the dark at room temperature.
# Pots of eight-week-old bentgrass were inoculated with the test fungi by placing 2-3 kernels of infected rye in the center of the grass area, just above the soil surface. After inoculation, pots were placed in humidity chambers on a greenhouse bench. Temperature during incubation was maintained at 27-30° C. for disease development and the growth of the test fungi. […]
substance,measurement,setting,value
"lysozyme: type c egg white lysozyme, enzyme of approximately 129 amino acids; commercially available from Canadian Inovatech, Inc.",coverage of the petri dishes,[1]; 50 ppm,65.8%
same,coverage of the petri dishes,[1]; 100 ppm,59.5%
same,coverage of the petri dishes,[1]; 250 ppm,36.1%
same,coverage of the petri dishes,[1]; 500 ppm,19.9%
same,coverage of the petri dishes,[1]; 1000 ppm,14.4%
same,lowest concentration that significantly reduced the fungal growth,[1]; p<0.05,50 ppm
same,fungal growth (% plate coverage),[2]; 50 ppm,33.7%
same,fungal growth (% plate coverage),[2]; 100 ppm,37.8%
same,fungal growth (% plate coverage),[2]; 250 ppm,23.5%
same,fungal growth (% plate coverage),[2]; 500 ppm,18.0%
same,lowest concentration that significantly reduced the fungal growth,[2]; p<0.05,50 ppm
same,fungal growth (% plate coverage),[3]; 50 ppm,87.2%
same,fungal growth (% plate coverage),[3]; 100 ppm,86.2%
same,fungal growth (% plate coverage),[3]; 250 ppm,34.0%
same,fungal growth (% plate coverage),[3]; 500 ppm,16.4%
same,fungal growth (% plate coverage),[3]; 1000 ppm,11.3%
same,concentration at which the fungal growth was significantly reduced,[3]; p<0.05,100 ppm
same,fungal growth (% plate coverage),[4]; 50 ppm,96.9%
same,fungal growth (% plate coverage),[4]; 100 ppm,90.6%
same,fungal growth (% plate coverage),[4]; 250 ppm,65.4%
same,fungal growth (% plate coverage),[4]; 500 ppm,43.0%
same,fungal growth (% plate coverage),[4]; 1000 ppm,34.7%
same,minimum concentration required to effectively inhibit this strain,[4]; p<0.05,100 ppm
same,fungal growth (% plate coverage),[5]; 50 ppm,89.4%
same,fungal growth (% plate coverage),[5]; 100 ppm,90.0%
same,fungal growth (% plate coverage),[5]; 250 ppm,61.5%
same,fungal growth (% plate coverage),[5]; 500 ppm,36.2%
same,fungal growth (% plate coverage),[5]; 1000 ppm,33.9%
same,concentration required to significantly reduce the growth,[5]; p<0.05,100 ppm
same,Comment,"[6]; 1000 ppm, 21 day",Excellent
same,Minimum effective treatment concentration of lysozyme,[6]; duration of trial 21 day,1000 ppm
same,Comment,"[7]; 150 ppm, 38 day",Excellent
same,Minimum effective treatment concentration of lysozyme,[7]; duration of trial 38 day,150 ppm
same,Comment,"[8]; 1000 ppm, 21 day",Fair-good
same,Minimum effective treatment concentration of lysozyme,[8]; duration of trial 21 day,1000 ppm
same,Comment,"[9]; 1000 ppm, 21 day",Excellent
same,Minimum effective treatment concentration of lysozyme,[9]; duration of trial 21 day,1000 ppm
same,Comment,"[10]; 1000 ppm, 21 day",Fair-good
same,Minimum effective treatment concentration of lysozyme,[10]; duration of trial 21 day,1000 ppm
same,Comment,"[11]; 250 ppm, 25 day",Excellent
same,Minimum effective treatment concentration of lysozyme,[11]; duration of trial 25 day,250 ppm
same,Comment,"[12]; 1000 ppm, 21 day",Excellent
same,Minimum effective treatment concentration of lysozyme,[12]; duration of trial 21 day,1000 ppm
same,Comment,"[13]; 500 ppm, 13 day",Excellent
same,Minimum effective treatment concentration of lysozyme,[13]; duration of trial 13 day,500 ppm
same,Comment,"[14]; 250 ppm, 13 day",Fair-good
same,Minimum effective treatment concentration of lysozyme,[14]; duration of trial 13 day,250 ppm
same,inhibition against Fusarium,[15]; 100 ppm or lower,not very effective
same,inhibition against Fusarium,[15]; 250 ppm,very good inhibition
same,time for which growth of Fusarium is limited,[15]; 250 ppm,two weeks
same,control against M. nivale,[16],good control
